Converted amounts (≈) assume the structure as drawn. Read-outs that look alike come from different tables or passages of the source.
Assays:
[1] = test system: S. littoralis larvae; experiment: Insecticidal leaf dip bioassay screening; settings: 72 h; for Toxicity ratio: fenoxycarb's LC50 / the compound's LC50; for LC50: Spodoptera littoralis, foliar
Experimental: Until usage, the stocks were kept in a refrigerator. The target substance test results were noted & the concentrations needed to destroy 50% (LC50) of S. littoralis larvae were calculated. The target compound was employed in five different concentrations, and 0.1% Tween 80 was employed as a surfactant. Castor bean leaf discs (nine centimeters in diameter) were dipped in the concentration under test for ten seconds, then fed to 2th & 4th larvae, which were roughly the same size and housed in glass jars (five lb). Each action was carried out 3 times with ten larvae each. The mortality equalized via Abbott's formula. Calculations of mortality setback line were measurably rummage via probity analysis. […] The mortality results of larval insect were estimated through employing probit analysis through a statistics (LDP-line) equation which estimate the LC50 values with 95% fiducially limits of lower, upper confidence limit and slope.

[2] = test system: aquatic insects; settings: cited from earlier work
[3] = read-out: LC50 (mg/L) at 95%, 2nd instar larvae, after 72 h of treatment
[4] = read-out: LC50 (mg/L) at 95%, 4th instar larvae, after 72 h of treatment

Row | Structure (SMILES) | Toxicity ratio ([1]; 2nd instar larvae) | Toxicity ratio ([1]; 4th instar larvae) | LC50 [1, 3] | LC50 [1, 4] | LC50 [2]
1 | CCOC(=O)NCCOc1ccc(Oc2ccccc2)cc1 [Fenoxycarb] | 1 | 1 | 2.73 mg/L (≈ 9.06 µM) | 9.18 mg/L (≈ 30.5 µM) | 
2 | CCCCN(CC(O)COc1ccc2ccccc2c1)CC(O)COc1cccc2ccccc12 (stereo not drawn) [III, 1-(butyl(2-hydroxy-3-(naphthalen-1-yloxy)propyl)amino)-3-(naphthalen-2-yloxy)propan-2-ol] | 0.253 | 0.551 | ~10.8 mg/L (≈ 22.7 µM) | ~16.6 mg/L (≈ 35.2 µM) | 
3 | CCc1ccc(C(=O)NN(C(=O)c2cc(C)cc(C)c2)C(C)(C)C)cc1 [tebufenozide] |  |  |  |  | 100 to 1000 µg/mL
